Entries after “also recorded” stand apart in the source; their conditions may differ.
Experiments:
[1] = test system: recombinant SARS-CoV-2 S-RBD; test: Phage display (PhD-12) panning against S-RBD; assay type: binding; conditions: phage-displayed sequence, after panning against S-RBD
[2] = test system: recombinant SARS-CoV-2 S-trimer proteins; test: Phage display (PhD-12) panning against S-trimer; assay type: binding; conditions: phage-displayed sequence, after panning against S-trimer
[3] = test system: S-trimer-ACE2 binding, 293T-ACE2hR cells; assay type: cell-based, SARS-CoV-2 (S-trimer); human (hACE2); conditions: for blocking of S-trimer binding onto 293T-ACE2hR cells, lower concentrations: 10 μM peptide and below, S-trimer 0.001 μM; for blocking of S-trimer binding onto 293T-ACE2hR cells, lower concentrations / blocking of S-trimer binding onto 293T-ACE2hR cells: premix 1 h, then 1 h on cells, room temperature, HRP anti-6X His tag, TMB, OD370 nm; for blocking of S-trimer binding onto 293T-ACE2hR cells: 50 μM peptide vs. 0.001 μM S-trimer (50,000-fold), p < 0.05 mark vs. vehicle, Student's t-test; for behaviour of C2 and C6 in the competition assay: Figure 3
[4] = test system: S-trimer-ACE2 binding, recombinant ACE2 proteins; test: Blocking of S-trimer binding onto recombinant ACE2 (ELISA); set-up: species or system SARS-CoV-2 (S-trimer); conditions: ACE2 coated 5 μg/ml, S-trimer 0.01 μM premixed with 0.5, 1.65 and 5 μM peptide (up to 500:1)
Protocol: Then, 293T-ACE2hR cells were substituted by recombinant ACE2 proteins and coated onto ELISA plates in the other measurement setting. In brief, recombinant ACE2 proteins (Novoprotein) were immobilized overnight at room temperature on ELISA plates at a 5 μg/ml concentration in 0.1 M NaHCO3, pH 9.6. The plates were then blocked with 10% fetal calf serum for 2 h and washed with tris-buffered saline solution containing 0.1% Tween-20 [[…] (PBST) buffer]. […] The following procedures were described above for the 293T-ACE2hR cells setting.
FIGURE 3 The potential blocking effect of peptides on the binding of S-trimer onto cellular or soluble angiotensin-converting enzyme 2 (ACE2). […] The peptide SBP1 was used as a positive and peptide SBP2 as the negative control. *p < 0.05, vs. vehicle, all by Student’s t-test.

S-RBD proteins = test system: S-RBD proteins; set-up: method as in Zhang et al., 2020; conditions: bio-layer interferometry; ref Zhang et al., 2020; cited from earlier work
[5] = test system: cell surface S-RBD proteins; set-up: method as in Zhang et al., 2020; conditions: ref Zhang et al., 2020; cited from earlier work
[6] = test system: ACE2 binding onto S-RBD proteins; set-up: method as in Zhang et al., 2020; conditions: ref Zhang et al., 2020; cited from earlier work

Row | Sequence | enrichment by S-RBD [1] | enrichment by S-trimer [2] | blocking of S-trimer binding onto 293T-ACE2hR cells, lower concentrations [3] | blocking of S-trimer binding onto 293T-ACE2hR cells [3] | behaviour of C2 and C6 in the competition assay [3] | blocking of S-trimer binding onto recombinant ACE2 [4] | association with S-RBD proteins (S-RBD proteins) | association with cell surface S-RBD proteins [5] | competition with ACE2 binding onto S-RBD [6]
1 | DHAQRYGAGHSG [C2] | enriched by S-RBD | only C2 was present in S-trimer selected phages | not at lower concentrations (10 μM and below) | inhibited S-trimer binding onto 293T-ACE2hR cells at high concentrations (50 μM); also recorded: a blocking effect was observed for C2 and C6 | C2 and C6 behaved similarly in the competition assay | neither for the settings of S-trimer binding onto recombinant ACE2 proteins; also recorded: Failure of 500-fold overdose of C2 or C6 peptides to block S-trimers binding with their receptors |  |  | 
2 | HWKAVNWLKPWT [C6] | enriched by S-RBD |  | not at lower concentrations (10 μM and below) | inhibited S-trimer binding onto 293T-ACE2hR cells at high concentrations (50 μM); also recorded: a blocking effect was observed for C2 and C6 | C2 and C6 behaved similarly in the competition assay | neither for the settings of S-trimer binding onto recombinant ACE2 proteins; also recorded: Failure of 500-fold overdose of C2 or C6 peptides to block S-trimers binding with their receptors |  |  | 
3 | IEEQAKTFLDKFNHEAEDLFYQSK [SBP1] |  |  |  | still not for SBP1 or SBP2 peptides |  |  | at the level of micromolar scales | neither associated with cell surface S-RBD proteins | nor did they outcompete ACE2 binding onto S-RBD proteins
4 | TFLDKFNHEAED [SBP2, reference compound] |  |  |  | still not for SBP1 or SBP2 peptides |  |  |  |  | 
